Experimental findings from ChEMBL document CHEMBL4602643, “Anti-inflammatory activities of isopimara-8(14),-15-diene diterpenoids and mode of action of kaempulchraols P and Q from Kaempferia pulchra rhizomes” (Bioorg Med Chem Lett, 2020) are described below.

SMILES strings stand for the structures. Calls of active or inactive are those of the source. The calls are words filed in the database; no cut-off is given here. A value given as a limit tells only on which side of the number the result lay.

Series [1] has as its system RAW264.7. Kind of series: Inhibition of LPS-induced NF-kappaB activation in mouse RAW264.7 cells expressing luciferase gene at 5 to 25 uM by luciferase reporter gene assay. It counts as cell-based. (Reporter assays use an easily measured gene product as a stand-in for the process of interest.)
Series [2] relates to RAW264.7. The experiment in a line: Inhibition of NF-kappaB activation in mouse RAW264.7 cells expressing luciferase gene at 5 to 25 uM by luciferase reporter gene assay. It counts as cell-based.
Series [3] concerns RAW264.7. Kind of series: Antiinflammatory activity in mouse RAW264.7 cells assessed as inhibition of LPS-induced COX2 expression at 25 uM incubated for 24 hrs by Western blot analysis. It is filed as functional, cell-based. (In general: A western blot detects proteins with antibodies after separation by electrophoresis.)
The nature of series [4]: Cytotoxicity against mouse RAW264.7 cells assessed as cell survival at 10 uM. It is filed as cell-based. To be noted: read-out: Activity.
The test system of series [5] is RAW264.7. Kind of series: Anti-inflammatory activity in mouse RAW264.7 cells assessed as inhibition of LPS-induced NO production at 100 uM relative to control. It is filed as functional.
Series [6] deals with RAW264.7. The experiment in a line: Anti-inflammatory activity in mouse RAW264.7 cells assessed as inhibition of LPS-induced NO production at 50 uM relative to control. It counts as functional.
In series [7] the test system is RAW264.7. Kind of series: Anti-inflammatory activity in mouse RAW264.7 cells assessed as inhibition of LPS-induced NO production at 10 uM relative to control. It counts as functional.
The nature of series [8]: Cytotoxicity against mouse RAW264.7 cells assessed as cell survival at 100 uM. To be noted: read-out: Activity. It is filed as cell-based.
In series [9] the test system is RAW264.7. Kind of series: Cytotoxicity against mouse RAW264.7 cells expressing luciferase reporter gene assessed as cell survival at 5 to 25 uM. It counts as cell-based. To be noted: raw264.7, 25 µM.
Series [10] in a line: Cytotoxicity against mouse RAW264.7 cells assessed as cell survival at 5 uM. It counts as cell-based. To be noted: read-out: Activity.
Series [11] has as its system RAW264.7. Kind of series: Anti-inflammatory activity in mouse RAW264.7 cells assessed as inhibition of LPS-induced NO production. It is filed as functional, cell-based.
Series [12] relates to RAW264.7. The experiment in a line: Anti-inflammatory activity in mouse RAW264.7 cells assessed as inhibition of LPS-induced NO production at 5 uM relative to control. It is filed as functional.
The subject of series [13] is RAW264.7. Kind of series: Inhibition of LPS-induced IL-6 production in mouse RAW264.7 cells at 25 uM by ELISA. It is filed as functional, cell-based.
Series [14] is described as follows: Cytotoxicity against mouse RAW264.7 cells assessed as cell survival at 50 uM. To be noted: read-out: Activity. It is filed as cell-based.
The subject of series [15] is RAW264.7. Kind of series: Cytotoxicity against mouse RAW264.7 cells assessed as reduction in cell viability. It counts as cell-based.

For orientation: inhibition means the drop in the measured response relative to a control, in per cent. By IC50 is commonly meant the point on the concentration scale where inhibition reaches its midpoint. As to `C=C[C@]1(C)C=C2C[C@@H](O)[C@H]3C(C)(C)CC[C@H](OC(C)=O)[C@]3(C)[C@H]2CC1`, the inhibition result in the series on RAW264.7 [1], with RAW264.7 [2], with RAW264.7 [3] and in the series with RAW264.7 [13] was “Active” each time. For the same compound, the viability at 10 µM in series [4] was 111%. In the series with RAW264.7 [5], the inhibition at 100 µM amounted to 81.8%. In addition, in the series with RAW264.7 [6], the inhibition at 50 µM turned out to be 71.6%. The inhibition at 10 µM with RAW264.7 [7] is 9.55%. For the same compound, the viability at 100 µM in [8] was found to be 3.39%. In the series on RAW264.7 [9], the Activity result is listed as “Non-Toxic”. In addition, the viability at 5 µM in [10] is 106%. Moreover, in the series on RAW264.7 [11], the IC50 was determined as 36.1 µM. Further, the inhibition at 5 µM in the series on RAW264.7 [12] stood at 15.2%. Further, the viability at 50 µM in series [14] amounted to 60.3%.
As for `C=C[C@]1(C)C=C2[C@@H](OC(C)=O)[C@@H](O)[C@H]3C(C)(C)CCC[C@]3(C)[C@@]2(O)CC1`, the viability at 10 µM in [4] worked out at 84.7%. In addition, in the series on RAW264.7 [5], the inhibition at 100 µM amounted to 47.5%. The inhibition at 50 µM with RAW264.7 [6] stood at 24.9%. For the same compound, the inhibition at 10 µM with RAW264.7 [7] was found to be 16.7%. Besides, the viability at 100 µM in series [8] worked out at 70.3%. The IC50 with RAW264.7 [15] was above 50 µM; in the series on RAW264.7 [11], above 100 µM. Also, in [10], the viability at 5 µM is 89.3%. Moreover, in the series with RAW264.7 [12], the inhibition at 5 µM worked out at 21.4%. Moreover, in series [14], the viability at 50 µM turned out to be 85.7%.
With `C=C[C@]1(C)C=C2[C@@H](O)[C@@H](O)[C@H]3C(C)(C)CCC[C@]3(C)[C@@]2(O)CC1`, in series [4], the viability at 10 µM turned out to be 81.2%. In the series on RAW264.7 [5], the inhibition at 100 µM was determined as 60.4%. Moreover, in the series with RAW264.7 [6], the inhibition at 50 µM was determined as 51.4%. Further, the inhibition at 10 µM with RAW264.7 [7] was 16.9%. In addition, the viability at 100 µM in series [8] was 22.1%. For the same compound, the values for the IC50 with RAW264.7 [15] and in the series on RAW264.7 [11] were above 50 µM and 48.4 µM, respectively. For the same compound, the viability at 5 µM in [10] turned out to be 140%. In addition, the inhibition at 5 µM in the series with RAW264.7 [12] came to 5.03%. The viability at 50 µM in [14] came out at 60.2%.
For the compound `C=C[C@]1(C)C=C2C[C@@H](O)[C@H]3C(C)(C)CCC[C@]3(C)[C@H]2CC1`, the inhibition entry in the series with RAW264.7 [1], in the series on RAW264.7 [2], with RAW264.7 [3] and in the series with RAW264.7 [13] was “Active” throughout. Besides, the viability at 10 µM in [4] came out at 149%. For the same compound, the inhibition at 100 µM with RAW264.7 [5] was found to be 81.7%. Moreover, in the series with RAW264.7 [6], the inhibition at 50 µM amounted to 65.6%. Further, the inhibition at 10 µM in the series on RAW264.7 [7] worked out at 3.82%. For the same compound, the viability at 100 µM in series [8] was determined as 66.8%. Besides, the Activity entry in the series with RAW264.7 [9] is “Non-Toxic”. Moreover, the viability at 5 µM in series [10] worked out at 98.7%. In addition, the IC50 with RAW264.7 [11] stood at 39.9 µM. The inhibition at 5 µM in the series on RAW264.7 [12] was found to be 9.97%. For the same compound, in [14], the viability at 50 µM worked out at 109%.
As for `C=C[C@]1(C)C=C2[C@H](OC(C)=O)[C@@H](O)[C@H]3C(C)(C)CCC[C@]3(C)[C@H]2CC1`, the viability at 10 µM in [4] was 107%. For the same compound, the inhibition at 100 µM with RAW264.7 [5] came out at 82.1%. Further, in the series on RAW264.7 [6], the inhibition at 50 µM is 80.3%. The inhibition at 10 µM in the series on RAW264.7 [7] was 9.88%. In addition, the viability at 100 µM in series [8] stood at 3.73%. Besides, the values for the IC50 in the series with RAW264.7 [15] and in the series on RAW264.7 [11] were 32.6 µM and 32.8 µM, respectively. Besides, the viability at 5 µM in [10] stood at 100%. In addition, the inhibition at 5 µM with RAW264.7 [12] is -0.32%. Also, in series [14], the viability at 50 µM was 6.17%.
